pIC50: −log10 of the molar value.
Experiment: Inhibition of [3-H]-glycine uptake into rat synaptosomes
Type: subcellular, Brain

| pIC50 | Compound |
| --- | --- |
| 6.82 | Cc1ccc(C(=O)c2ccc(OC(CCN(C)CC(=O)O)c3ccccc3)cc2)cc1 (configuration not stated) |
| 7.44 | CN(CCC(Oc1ccc(-c2ccccc2)cc1)c1ccc(F)cc1)CC(=O)O (configuration not stated) |

Source: ChEMBL document CHEMBL1136681, “[3H]-(R)-NPTS, a radioligand for the type 1 glycine transporter” (Bioorg Med Chem Lett, 2003)
